From patent US6586416B2, “Methods of treatment using an epithelial sodium channel blocker and an inhibitor of the mineralocorticoid receptor” (priority 2001, dated 2003)

How the values were obtained:
Format in all cases: cell-based
[1] = target: T1, amiloride-sensitive sodium conductance (ENaC) (Rattus norvegicus, UniProt P37089+P37090+P37091); test: Whole-cell patch clamp of rat collecting duct principal cells; conditions: for mean current measured at EK+ (−80 mV): statistical analysis, then vasopressin, then amiloride
T1 construct: Collecting ducts were manually dissected from sagittal slices obtained from 50 gram Sprague Dawley rats and 0.5 Kg New Zealand White rabbits; from tissue; host or cells: principal cells isolated from kidney collecting ducts of Sprague Dawley rats
T1 sequence (P37089 1-698): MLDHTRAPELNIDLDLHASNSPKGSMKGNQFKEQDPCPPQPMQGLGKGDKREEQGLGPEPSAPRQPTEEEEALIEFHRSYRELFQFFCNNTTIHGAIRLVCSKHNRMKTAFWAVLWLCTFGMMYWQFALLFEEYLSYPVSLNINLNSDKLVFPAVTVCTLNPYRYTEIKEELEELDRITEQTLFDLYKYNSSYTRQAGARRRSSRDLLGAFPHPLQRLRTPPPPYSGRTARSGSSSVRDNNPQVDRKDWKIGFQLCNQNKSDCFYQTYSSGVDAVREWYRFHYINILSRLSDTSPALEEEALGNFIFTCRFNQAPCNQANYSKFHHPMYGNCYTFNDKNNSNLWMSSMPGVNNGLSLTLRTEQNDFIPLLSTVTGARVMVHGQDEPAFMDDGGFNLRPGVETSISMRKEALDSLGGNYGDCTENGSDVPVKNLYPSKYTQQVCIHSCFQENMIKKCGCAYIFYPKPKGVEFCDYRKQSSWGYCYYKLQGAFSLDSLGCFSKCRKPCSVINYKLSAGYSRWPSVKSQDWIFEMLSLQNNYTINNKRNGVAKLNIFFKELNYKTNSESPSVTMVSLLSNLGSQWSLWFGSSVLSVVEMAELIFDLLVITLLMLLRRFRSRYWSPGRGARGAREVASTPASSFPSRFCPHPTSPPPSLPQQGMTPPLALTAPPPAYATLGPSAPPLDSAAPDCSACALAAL
T1 sequence (P37090 1-638): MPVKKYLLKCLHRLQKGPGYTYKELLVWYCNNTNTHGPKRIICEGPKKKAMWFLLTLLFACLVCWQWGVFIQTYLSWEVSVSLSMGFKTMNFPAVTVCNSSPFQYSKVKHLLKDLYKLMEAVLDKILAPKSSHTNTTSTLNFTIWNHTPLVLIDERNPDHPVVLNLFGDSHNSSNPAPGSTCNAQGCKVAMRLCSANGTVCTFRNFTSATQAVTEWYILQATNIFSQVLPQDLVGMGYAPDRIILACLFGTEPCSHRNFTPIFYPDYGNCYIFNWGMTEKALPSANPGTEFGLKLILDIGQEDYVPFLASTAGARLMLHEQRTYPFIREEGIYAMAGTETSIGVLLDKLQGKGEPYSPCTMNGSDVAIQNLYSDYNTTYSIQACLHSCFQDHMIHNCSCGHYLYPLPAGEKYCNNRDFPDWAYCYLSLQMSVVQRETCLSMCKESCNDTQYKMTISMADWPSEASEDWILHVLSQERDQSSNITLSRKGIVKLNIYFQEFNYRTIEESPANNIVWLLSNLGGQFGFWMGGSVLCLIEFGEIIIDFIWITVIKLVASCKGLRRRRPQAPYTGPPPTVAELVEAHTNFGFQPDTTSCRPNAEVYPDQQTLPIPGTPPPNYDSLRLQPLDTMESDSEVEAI
T1 sequence (P37091 1-650): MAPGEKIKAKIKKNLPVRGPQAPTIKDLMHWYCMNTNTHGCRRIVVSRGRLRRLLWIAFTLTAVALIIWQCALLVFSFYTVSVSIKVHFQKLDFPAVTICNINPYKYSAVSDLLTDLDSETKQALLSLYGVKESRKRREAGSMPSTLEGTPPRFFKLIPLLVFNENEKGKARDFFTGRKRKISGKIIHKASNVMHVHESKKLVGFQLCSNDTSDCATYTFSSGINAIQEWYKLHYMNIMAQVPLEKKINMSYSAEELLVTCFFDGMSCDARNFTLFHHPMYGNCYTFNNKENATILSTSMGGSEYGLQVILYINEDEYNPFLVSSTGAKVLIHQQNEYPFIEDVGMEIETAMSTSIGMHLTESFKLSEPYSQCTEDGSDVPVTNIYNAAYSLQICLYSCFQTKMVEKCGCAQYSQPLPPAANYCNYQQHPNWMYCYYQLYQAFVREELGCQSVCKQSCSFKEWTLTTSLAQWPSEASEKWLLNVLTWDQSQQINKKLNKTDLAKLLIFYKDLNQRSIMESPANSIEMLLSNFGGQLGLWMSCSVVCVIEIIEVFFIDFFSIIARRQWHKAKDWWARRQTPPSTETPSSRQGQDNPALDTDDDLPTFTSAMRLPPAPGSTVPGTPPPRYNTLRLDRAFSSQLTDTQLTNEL
Procedure: (§1) Collecting ducts were manually dissected from sagittal slices obtained from 50 gram Sprague Dawley rats and 0.5 Kg New Zealand White rabbits. The dissected collecting ducts were suspended in RPMI 1640 culture medium supplemented with 1.5 mg/ml collagenase A (Boehringer Mannheim, Mannhein, Germany). The collecting ducts were enzymatically digested for 1.5 hours to isolate individual cells. The digested cells were washed in serum-free RPMI and placed in a perfusion chamber mounted on the stage of an inverted microscope. The whole-cell patch clamp configuration was established and initial current measurements were made in un-supplemented RPMI. […] To block the cytosolic mineralocorticoid receptor, some cells were suspended in RPMI supplemented with spironolactone for 1 hour prior to whole-cell patch clamping.
The same protocol was carried out on rabbit principal cells.

[2] = test system: amiloride-sensitive sodium conductance (ENaC); test: Whole-cell patch clamp of rabbit collecting duct principal cells; conditions: for mean current measured at EK+ (−80 mV): statistical analysis, aldosterone, then vasopressin, then amiloride
Procedure: as §1
Studies were conducted using both whole cell patch clamp and single channel patch clamp techniques. Whole-cell clamped rabbit principal cells were exposed to 100 nM aldosterone. […] No cells failed both tests. […] ENa+ was approximately +60 mV with the ionic gradients present. The activated current was carried exclusively by sodium. In a separate set of experiments rabbit principal cells were re-suspended in RPMI supplemented with 1 μM spironolactone for 1 hour prior to use for whole-cell patch clamp. This concentration is sufficient to inhibit completely the mineralocorticoid receptor.

[3] = target: T2, ENaC (Homo sapiens, UniProt P37088+P51168+P51170); test: Single channel patch clamp (outside-out patches) of human lymphocytes
T2 construct: Human and canine lymphocytes were isolated from peripheral blood samples by differential centrifugation over ficoll paque; endogenous in cells; host or cells: human peripheral blood lymphocytes
T2 sequence (P37088 1-669): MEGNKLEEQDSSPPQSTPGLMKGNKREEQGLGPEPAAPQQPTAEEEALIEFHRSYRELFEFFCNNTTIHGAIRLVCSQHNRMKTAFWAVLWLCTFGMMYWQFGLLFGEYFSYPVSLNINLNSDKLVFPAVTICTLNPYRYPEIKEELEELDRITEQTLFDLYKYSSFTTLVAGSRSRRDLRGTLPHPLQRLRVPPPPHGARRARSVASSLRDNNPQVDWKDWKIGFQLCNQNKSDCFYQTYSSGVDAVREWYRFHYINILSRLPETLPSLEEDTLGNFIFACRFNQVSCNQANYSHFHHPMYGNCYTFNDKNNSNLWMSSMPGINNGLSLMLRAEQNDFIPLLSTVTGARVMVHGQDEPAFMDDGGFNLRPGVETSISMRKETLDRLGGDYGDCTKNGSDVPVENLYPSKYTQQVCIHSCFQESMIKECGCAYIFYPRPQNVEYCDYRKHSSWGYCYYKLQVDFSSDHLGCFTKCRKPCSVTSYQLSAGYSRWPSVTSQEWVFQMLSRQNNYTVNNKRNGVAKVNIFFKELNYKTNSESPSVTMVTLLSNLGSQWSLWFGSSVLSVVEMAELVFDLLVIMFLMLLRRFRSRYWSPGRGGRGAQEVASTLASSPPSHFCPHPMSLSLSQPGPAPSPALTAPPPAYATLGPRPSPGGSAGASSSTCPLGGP
T2 sequence (P51168 1-640): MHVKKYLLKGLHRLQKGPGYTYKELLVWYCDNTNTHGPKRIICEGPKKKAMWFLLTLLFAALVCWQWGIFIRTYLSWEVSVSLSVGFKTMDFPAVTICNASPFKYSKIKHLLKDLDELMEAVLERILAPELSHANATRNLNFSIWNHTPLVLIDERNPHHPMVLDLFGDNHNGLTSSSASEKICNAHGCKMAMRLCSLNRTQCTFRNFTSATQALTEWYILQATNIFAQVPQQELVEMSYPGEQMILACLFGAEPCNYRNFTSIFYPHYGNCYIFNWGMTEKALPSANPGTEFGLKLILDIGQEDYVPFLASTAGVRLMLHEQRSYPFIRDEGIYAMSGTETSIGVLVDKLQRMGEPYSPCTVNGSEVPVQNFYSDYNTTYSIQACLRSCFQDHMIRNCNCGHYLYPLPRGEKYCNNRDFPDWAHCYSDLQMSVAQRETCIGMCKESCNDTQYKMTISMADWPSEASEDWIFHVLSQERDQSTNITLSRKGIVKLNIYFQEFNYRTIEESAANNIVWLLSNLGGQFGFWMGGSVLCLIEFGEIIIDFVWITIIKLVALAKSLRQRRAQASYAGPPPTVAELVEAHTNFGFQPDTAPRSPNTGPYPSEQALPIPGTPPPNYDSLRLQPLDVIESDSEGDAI
T2 sequence (P51170 1-649): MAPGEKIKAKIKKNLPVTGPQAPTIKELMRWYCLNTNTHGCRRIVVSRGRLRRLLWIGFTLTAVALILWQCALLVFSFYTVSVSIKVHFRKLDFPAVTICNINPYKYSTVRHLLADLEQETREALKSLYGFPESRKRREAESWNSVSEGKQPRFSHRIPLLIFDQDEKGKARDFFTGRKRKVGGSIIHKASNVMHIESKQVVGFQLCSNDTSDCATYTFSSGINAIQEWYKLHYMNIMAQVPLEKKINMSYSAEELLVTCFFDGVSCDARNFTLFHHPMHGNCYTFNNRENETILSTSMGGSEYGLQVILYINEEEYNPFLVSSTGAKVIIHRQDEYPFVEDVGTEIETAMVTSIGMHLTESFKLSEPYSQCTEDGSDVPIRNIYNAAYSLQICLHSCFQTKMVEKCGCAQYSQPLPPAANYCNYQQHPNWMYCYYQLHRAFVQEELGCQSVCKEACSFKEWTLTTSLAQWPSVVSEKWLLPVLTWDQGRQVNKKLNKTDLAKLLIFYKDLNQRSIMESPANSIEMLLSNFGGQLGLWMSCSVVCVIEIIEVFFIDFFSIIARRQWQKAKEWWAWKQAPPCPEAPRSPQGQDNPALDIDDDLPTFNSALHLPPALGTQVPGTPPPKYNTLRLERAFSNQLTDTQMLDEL
Procedure: Human and canine lymphocytes were isolated from peripheral blood samples by differential centrifugation over ficoll paque (Pharmacia Biotech, Uppsala, Sweden). The cells were washed and re-suspended in serum-free RPMI. Subsequently, suspended cells were placed in the perfusion chamber. Whole-cell patch clamp and testing of aldosterone were carried out using identical techniques and protocols as described for principal cells. Rabbit, rat and mouse lymphocytes were obtained by mincing sections of spleen and manually freeing the cells by agitation. The cell suspensions were then centrifuged over ficoll paque and treated identically to the lymphocytes obtained from peripheral blood. All procedures were carried out under the guidelines for animal use and with institutional board approval for human use.
The “ragged” morphology of the whole-cell currents in principal cells and lymphocytes has generated some concern about the identity of the channels that are activated by aldosterone. To address this concern, single channel characteristics of the sodium conductors expressed by human lymphocytes were studied.
To test the amiloride sensitivity of the single channels, outside-out patches were formed because amiloride only interacts with the outside surface of the channels. A “rundown” phenomena typical of ENaC in the inside-out patch experiments was noted.

C[C@]12CCC(=O)C=C1CC[C@@H]1[C@@H]2[C@@H](O)C[C@]2(C=O)[C@@H](C(=O)CO)CC[C@@H]12 [aldosterone]
acute effect on principal cells ([1]; aldosterone): no acute affect
mean current measured at EK+ (−80 mV) ([1]; aldosterone): did not alter the current
effect on inward currents with mineralocorticoid receptor inhibition ([2]; rabbit principal cells pre-treated with 1 μM spironolactone, 100 nM aldosterone): specifically activated the inward currents
effect on inward currents at hyperpolarized membrane potential clamp voltages ([2]; rabbit principal cells, 100 nM aldosterone in bath): specific activation of the inward currents
mean current measured at EK+ (−80 mV) ([2]; rabbit principal cells): significantly increased the current
time to aldosterone-stimulated ENaC activation ([2]; rabbit principal cells, whole-cell clamp, ATP-supplemented pipette solution): within seconds
unitary conductance ([3]; cells treated with 100 nM aldosterone): unchanged

N=C(N)NC(=O)c1nc(Cl)c(N)nc1N [amiloride]
mean current measured at EK+ (−80 mV) ([1]; aldosterone): restored the current to the basal level
inhibition of aldosterone-activated currents ([2]; rabbit principal cells, 2 μM amiloride in the continued presence of aldosterone): inhibited completely
mean current measured at EK+ (−80 mV) ([2]; rabbit principal cells): returned the conductance to the basal level
single channel activity ([3]; amiloride 2 μM): completely abolished
inhibition of single channels ([3]; amiloride concentration close to IC50 ([…] nM)): Incomplete inhibitory action
single channel activity ([3]; cells treated with 100 nM aldosterone, amiloride 2 μM final concentration in bath): virtually abolished

CC(=O)S[C@@H]1CC2=CC(=O)CC[C@]2(C)[C@H]2CC[C@@]3(C)[C@@H](CC[C@@]34CCC(=O)O4)[C@H]12 [spironolactone]
effect on inward currents ([2]; rabbit principal cells, 1 μM spironolactone for 1 hour prior to whole-cell patch clamp): no effect on the inward currents

NC(=O)CC[C@@H]1NC(=O)[C@H](Cc2ccccc2)NC(=O)[C@H](Cc2ccc(O)cc2)NC(=O)[C@@H](N)CSSC[C@@H](C(=O)N2CCC[C@H]2C(=O)N[C@@H](CCCN=C(N)N)C(=O)NCC(N)=O)NC(=O)[C@H](CC(N)=O)NC1=O [vasopressin]
activation of amiloride sensitive inward currents ([1]; 250 nM vasopressin after aldosterone): acute specific activation of the amiloride sensitive inward currents
mean current measured at EK+ (−80 mV) ([1]; aldosterone): increased it significantly
mean current measured at EK+ (−80 mV) ([2]; rabbit principal cells): had no additional effect
further activation of inward currents after ENaC activation by aldosterone ([2]; rabbit principal cells, vasopressin after aldosterone): did not activate the inward currents any further
